Measured values: patent US7118895B2, “Process for producing aglycon by using diglycosidase and flavor-improved food containing the aglycon and converting agent to be used in the process” (Amano Enzyme Inc., priority 2000, dated 2006)

Test system: Crude diglycosidase
Test: Examination of substrate concentration in the conversion into isoflavone aglycons by diglycosidase using soybean materials;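 for Decomposition efficiency: ratio of each glycoside/aglycon within its isoflavone family: percent of the isoflavone family total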
Type: biochemical, Penicillium multicolor IAM7153
Outline: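 Reaction at 55° C, shaken, pH 4.0 (20 mM acetate), using crude diglycosidase from a 1.88 AU/mL enzyme solution on soy flour, soymilk, defatted soybean or soy protein concentrate at 2, 5, 10, 20 or 30% (w/v). Isoflavone aglycons quantified by HPLC of ethanol extracts at 0, 1, 3, 6 h.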

O=C(O)CC(=O)OC[C@H]1O[C@@H](Oc2cc(O)c3c(=O)c(-c4ccc(O)cc4)coc3c2)[C@H](O)[C@@H](O)[C@@H]1O [malonylgenistin, 6″-O-malonylgenistin]
Decomposition efficiency: ratio of each glycoside/aglycon within its isoflavone family (roasted soy flour, substrate concentration 20%, heat treatment of enzyme no, reaction time 1 h): not detected | Decomposition efficiency: ratio of each glycoside/aglycon within its isoflavone family (roasted soy flour, substrate concentration 20%, heat treatment of enzyme no, reaction time 3 h): not detected | Decomposition efficiency: ratio of each glycoside/aglycon within its isoflavone family (roasted soy flour, substrate concentration 20%, heat treatment of enzyme no, reaction time 6 h): not detected | Decomposition efficiency: ratio of each glycoside/aglycon within its isoflavone family (roasted soy flour, substrate concentration 20%, heat treatment of enzyme yes, reaction time 6 h): not detected | Decomposition efficiency: ratio of each glycoside/aglycon within its isoflavone family (roasted soy flour, substrate concentration 30%, heat treatment of enzyme no, reaction time 0 h): not detected | Decomposition efficiency: ratio of each glycoside/aglycon within its isoflavone family (roasted soy flour, substrate concentration 30%, heat treatment of enzyme no, reaction time 1 h): not detected | Decomposition efficiency: ratio of each glycoside/aglycon within its isoflavone family (roasted soy flour, substrate concentration 30%, heat treatment of enzyme no, reaction time 3 h): not detected | Decomposition efficiency: ratio of each glycoside/aglycon within its isoflavone family (roasted soy flour, substrate concentration 30%, heat treatment of enzyme no, reaction time 6 h): not detected | Decomposition efficiency: ratio of each glycoside/aglycon within its isoflavone family (roasted soy flour, substrate concentration 30%, heat treatment of enzyme yes, reaction time 6 h): not detected | Decomposition efficiency: ratio of each glycoside/aglycon within its isoflavone family (soymilk, substrate concentration 2%, heat treatment of enzyme no, reaction time 0 h): 35.0% | Decomposition efficiency: ratio of each glycoside/aglycon within its isoflavone family (soymilk, substrate concentration 2%, heat treatment of enzyme no, reaction time 1 h): 15.3% | Decomposition efficiency: ratio of each glycoside/aglycon within its isoflavone family (soymilk, substrate concentration 2%, heat treatment of enzyme no, reaction time 3 h): 3.5% | Decomposition efficiency: ratio of each glycoside/aglycon within its isoflavone family (soymilk, substrate concentration 2%, heat treatment of enzyme no, reaction time 6 h): 0.0% | Decomposition efficiency: ratio of each glycoside/aglycon within its isoflavone family (soymilk, substrate concentration 2%, heat treatment of enzyme yes, reaction time 6 h): 49.5% | Decomposition efficiency: ratio of each glycoside/aglycon within its isoflavone family (soymilk, substrate concentration 5%, heat treatment of enzyme no, reaction time 0 h): 58.2% | Decomposition efficiency: ratio of each glycoside/aglycon within its isoflavone family (soymilk, substrate concentration 5%, heat treatment of enzyme no, reaction time 1 h): 24.9% | Decomposition efficiency: ratio of each glycoside/aglycon within its isoflavone family (soymilk, substrate concentration 5%, heat treatment of enzyme no, reaction time 3 h): 6.9% | Decomposition efficiency: ratio of each glycoside/aglycon within its isoflavone family (soymilk, substrate concentration 5%, heat treatment of enzyme no, reaction time 6 h): 2.1% | Decomposition efficiency: ratio of each glycoside/aglycon within its isoflavone family (soymilk, substrate concentration 5%, heat treatment of enzyme yes, reaction time 6 h): 52.5% | Decomposition efficiency: ratio of each glycoside/aglycon within its isoflavone family (soymilk, substrate concentration 10%, heat treatment of enzyme no, reaction time 0 h): 56.5% | Decomposition efficiency: ratio of each glycoside/aglycon within its isoflavone family (soymilk, substrate concentration 10%, heat treatment of enzyme no, reaction time 1 h): 31.5% | Decomposition efficiency: ratio of each glycoside/aglycon within its isoflavone family (soymilk, substrate concentration 10%, heat treatment of enzyme no, reaction time 3 h): 11.9% | Decomposition efficiency: ratio of each glycoside/aglycon within its isoflavone family (soymilk, substrate concentration 10%, heat treatment of enzyme no, reaction time 6 h): 4.8% | Decomposition efficiency: ratio of each glycoside/aglycon within its isoflavone family (soymilk, substrate concentration 10%, heat treatment of enzyme yes, reaction time 6 h): 51.2% | Decomposition efficiency: ratio of each glycoside/aglycon within its isoflavone family (soymilk, substrate concentration 20%, heat treatment of enzyme no, reaction time 0 h): 56.3% | Decomposition efficiency: ratio of each glycoside/aglycon within its isoflavone family (soymilk, substrate concentration 20%, heat treatment of enzyme no, reaction time 1 h): 37.6% | Decomposition efficiency: ratio of each glycoside/aglycon within its isoflavone family (soymilk, substrate concentration 20%, heat treatment of enzyme no, reaction time 3 h): 15.7% | Decomposition efficiency: ratio of each glycoside/aglycon within its isoflavone family (soymilk, substrate concentration 20%, heat treatment of enzyme no, reaction time 6 h): 10.7% | Decomposition efficiency: ratio of each glycoside/aglycon within its isoflavone family (soymilk, substrate concentration 20%, heat treatment of enzyme yes, reaction time 6 h): 51.0% | Decomposition efficiency: ratio of each glycoside/aglycon within its isoflavone family (soymilk, substrate concentration 30%, heat treatment of enzyme no, reaction time 0 h): 55.9% | Decomposition efficiency: ratio of each glycoside/aglycon within its isoflavone family (soymilk, substrate concentration 30%, heat treatment of enzyme no, reaction time 1 h): 42.5% | Decomposition efficiency: ratio of each glycoside/aglycon within its isoflavone family (soymilk, substrate concentration 30%, heat treatment of enzyme no, reaction time 3 h): 25.4% | Decomposition efficiency: ratio of each glycoside/aglycon within its isoflavone family (soymilk, substrate concentration 30%, heat treatment of enzyme no, reaction time 6 h): 17.1% | Decomposition efficiency: ratio of each glycoside/aglycon within its isoflavone family (soymilk, substrate concentration 30%, heat treatment of enzyme yes, reaction time 6 h): 50.0% | Decomposition efficiency of genistin family in defatted soybean (substrate concentration 2%, heat treatment of enzyme no, reaction time 0 h): 45.4 | Decomposition efficiency of genistin family in defatted soybean (substrate concentration 2%, heat treatment of enzyme no, reaction time 1 h): 31.4 | Decomposition efficiency of genistin family in defatted soybean (substrate concentration 2%, heat treatment of enzyme no, reaction time 3 h): 17.0 | Decomposition efficiency of genistin family in defatted soybean (substrate concentration 2%, heat treatment of enzyme no, reaction time 6 h): 11.4 | Decomposition efficiency of genistin family in defatted soybean (substrate concentration 2%, heat treatment of enzyme yes, reaction time 6 h): 41.8 | Decomposition efficiency of genistin family in defatted soybean (substrate concentration 5%, heat treatment of enzyme no, reaction time 0 h): 43.9 | Decomposition efficiency of genistin family in defatted soybean (substrate concentration 5%, heat treatment of enzyme no, reaction time 1 h): 38.0 | Decomposition efficiency of genistin family in defatted soybean (substrate concentration 5%, heat treatment of enzyme no, reaction time 3 h): 29.6 | Decomposition efficiency of genistin family in defatted soybean (substrate concentration 5%, heat treatment of enzyme no, reaction time 6 h): 19.0 | Decomposition efficiency of genistin family in defatted soybean (substrate concentration 5%, heat treatment of enzyme yes, reaction time 6 h): 41.1 | Decomposition efficiency of genistin family in defatted soybean (substrate concentration 10%, heat treatment of enzyme no, reaction time 0 h): 41.6 | Decomposition efficiency of genistin family in defatted soybean (substrate concentration 10%, heat treatment of enzyme no, reaction time 1 h): 41.5 | Decomposition efficiency of genistin family in defatted soybean (substrate concentration 10%, heat treatment of enzyme no, reaction time 3 h): 35.1 | Decomposition efficiency of genistin family in defatted soybean (substrate concentration 10%, heat treatment of enzyme no, reaction time 6 h): 29.1 | Decomposition efficiency of genistin family in defatted soybean (substrate concentration 10%, heat treatment of enzyme yes, reaction time 6 h): 39.4
